From US20190275012A9, “SUBSTITUTED THIAZOLO-PYRIDINE COMPOUNDS AS MALT1 INHIBITORS” (Lupin Limited, priority 2016, published 2019)

What was measured:
[1] = molecular target: T1, full length MALT1 enzyme (Homo sapiens, UniProt Q9UDY8); assay: MALT1 biochemical assay (fluorescence based, Ac-Leu-Arg-Ser-Arg-AMC cleavage); details: full length MALT1 protein, 2 h pre-incubation at RT, tetrapeptide substrate Ac-Leu-Arg-Ser-Arg-AMC, read-out: Malt 1 inhibition IC50
T1 construct: a fluorescence based assay with full length MALT1 enzyme
T1 sequence (Q9UDY8 1-824): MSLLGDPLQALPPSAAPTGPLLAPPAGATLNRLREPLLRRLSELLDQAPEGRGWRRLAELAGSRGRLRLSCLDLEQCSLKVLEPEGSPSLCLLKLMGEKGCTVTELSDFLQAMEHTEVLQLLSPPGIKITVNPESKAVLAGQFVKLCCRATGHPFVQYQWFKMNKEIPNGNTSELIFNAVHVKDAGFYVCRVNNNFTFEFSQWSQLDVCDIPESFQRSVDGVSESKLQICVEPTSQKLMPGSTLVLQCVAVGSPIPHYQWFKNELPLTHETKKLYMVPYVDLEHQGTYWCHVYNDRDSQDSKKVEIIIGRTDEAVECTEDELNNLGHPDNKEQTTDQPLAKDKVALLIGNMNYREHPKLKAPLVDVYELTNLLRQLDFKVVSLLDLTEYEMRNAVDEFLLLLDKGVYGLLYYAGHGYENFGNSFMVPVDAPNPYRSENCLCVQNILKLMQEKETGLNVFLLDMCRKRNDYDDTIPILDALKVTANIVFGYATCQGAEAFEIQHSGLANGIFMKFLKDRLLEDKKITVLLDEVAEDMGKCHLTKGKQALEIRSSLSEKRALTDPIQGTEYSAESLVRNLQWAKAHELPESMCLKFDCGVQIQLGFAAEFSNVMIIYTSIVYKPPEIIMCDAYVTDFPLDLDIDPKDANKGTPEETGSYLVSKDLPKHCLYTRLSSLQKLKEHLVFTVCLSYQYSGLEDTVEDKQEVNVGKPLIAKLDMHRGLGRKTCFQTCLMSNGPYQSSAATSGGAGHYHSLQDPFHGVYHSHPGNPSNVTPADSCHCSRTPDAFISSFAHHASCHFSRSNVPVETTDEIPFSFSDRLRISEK
Description: The biochemical potency of the MALT1 inhibitors was tested by using a fluorescence based assay with full length MALT1 enzyme. The assay principle makes use of the preferential cleavage by MALT1 after the Arginine residue. Thus, the substrate used is a tetrapeptide (Ac-Leu-Arg-Ser-Arg-AMC; Catalogue # SMAMC013, SM Biochemicals) which is cleaved by active MALT1 releasing the AMC which is fluorescent. Upon addition of the MALT1 protease inhibitors, the proteolytic activity (and accordingly AMC fluorescence) is reduced in a dose dependent manner. The kinetic characterization of the enzymatic reaction was measured by determining the Michaelis constant, Km, of the reaction (approximately 130=A/I). The assay buffer consisted of 50 mM MES, 150 mM NaCl, 0.1% w/v CHAPS, 1 M Ammonium citrate and 10 mM DTT (pH=7). The assay was established for the 384-well plate format using black microtiter square well plates (Optiplate 384-F, Perkin Elmer). The test compounds were dissolved in 100% DMSO at a stock concentration of 10 mM. Serial dilutions were made first in 100% DMSO. The final concentration of DMSO was 0.5% by wt.
For determining the extent of inhibition of MALT1 protease activity by MALT1 inhibitors, 10⇒| of the test compound solutions were pre-incubated with 10⇒| of MALT1 full length protein (100-300 ng protein/well) for 2 h at RT. This was followed by 10⇒| of substrate addition at a final concentration of 100⇒M for an additional 4-12 h. The increase in assay signal was linear over this period of time and proportional with increase in the enzyme content. The final concentrations of the test compounds typically ranged from 10000 nM to 0.03 nM in an alternate 3.16 and 3 serial dilutions. The positive control for the reaction contained enzyme and DMSO (without any test compound) and was considered to have 100% enzyme activity (0% inhibition) and the negative control containing only buffer and DMSO (without any enzyme) was considered to have no enzymatic activity (100% inhibition). The fluorescence was recorded in a Spectra Max plate reader, Molecular Devices, with a fluorescence excitation at 360 nm and emission recording at 460 nm. The fluorescence units were transformed to percentage inhibitions by using the positive and negative controls as references as per the following formula.
[formula] Positive control=Reaction containing enzyme+substrate+DMSO
Negative control=Reaction containing substrate+DMSO but no enzyme
The IC50 values of individual compounds were calculated with Non Linear Regression Analysis using Graph Pad Prism (Graph Pad software, Inc, USA).

[2] = test system: NF-kB transcriptional activity in HEK-293-NF-kB-Luc cell line overexpressing MALT1; assay: NF-kB reporter assay (luciferase, MALT1 stably overexpressed); assay type: cell-based; details: Homo sapiens, 24 h, HEK-293-NF-kB-Luc cells stably overexpressing MALT1, 24 h treatment, Bright Glo luminescence; read-out: NF-kB inhibition IC50
Description: The NF-⇐B reporter assay was performed to screen for MALT1 inhibition mediated reduction in the NF-⇐B transcriptional activity. For this purpose, MALT1 was stably overexpressed in HEK-293—NF-⇐B-Luc cell line. Cells were seeded in poly-D-lysine coated 96-well plates in a culture medium containing the selection markers (DMEM+10% FBS+50 |g/ml Hygromycin+500 |g/ml Geniticin) and allowed to adhere overnight. On the following day, cells were treated with various concentrations of test compounds for 24 h. After 24 h of treatment with test compounds, media was removed from each well and Bright Glo™ (Promega, USA) substrate was added and incubated for further 10 min at ambient temperature. Luminescence was measured for detection of NF-⇐B reporter activity. RLUs (Relative Luminescence Units) were directly proportional to the NF-⇐B activity. % inhibition of NF-⇐B activity was calculated relative to the samples containing media with 0.1% DMSO alone as per the following formula

| Structure (SMILES) | IC50 [1] [nM] | IC50 [2] [nM] |
| --- | --- | --- |
| COCC1CCCN(c2c(NC(=O)Nc3cnc(-n4nccn4)c(Cl)c3)cnc3sc(C)nc23)C1 (racemic) [Compound 50, (ě)-1-(5-Chloro-6-(2H-1,2,3-triazol-2-yl)pyridin-3-yl)-3-(7-(3-(methoxymethyl)piperidin-1-yl)-2-methylthiazolo[5,4-b]pyridin-6-yl)urea] | 1 to 50 | 101 to 500 |
| COCC1CCCN(c2c(NC(=O)Nc3cnc(OC)c(Cl)c3)cnc3sc(C)nc23)C1 (racemic) [Compound 51, (ě)-1-(5-Chloro-6-methoxypyridin-3-yl)-3-(7-(3-(methoxymethyl)piperidin-1-yl)-2-methylthiazolo[5,4-b]pyridin-6-yl)urea] | 51 to 100 | 501 to 1500 |
| COC1CCCN(c2c(NC(=O)Nc3cnc(-n4nccn4)c(Cl)c3)cnc3sc(C)nc23)C1 (racemic) [Compound 52, (ě)-1-(5-Chloro-6-(2H-1,2,3-triazol-2-yl)pyridin-3-yl)-3-(7-(3-methoxypiperidin-1-yl)-2-methylthiazolo[5,4-b]pyridin-6-yl)urea] | 1 to 50 | 101 to 500 |
| Cc1nc2c(C(C)O)c(NC(=O)Nc3cnc(-n4nccn4)c(C(F)(F)F)c3)cnc2s1 (single isomer, unassigned) [Compound 71b, 1-(6-(2H-1,2,3-Triazol-2-yl)-5-(trifluoromethyl)pyridin-3-yl)-3-(7-(1-hydroxyethyl)-2-methylthiazolo[5,4-b]pyridin-6-yl)urea] | 1 to 50 | 1 to 100 |
| Cc1nc2c(C(C)N(C)C)c(NC(=O)Nc3cnc(-n4nccn4)c(C(F)(F)F)c3)cnc2s1 (single isomer, unassigned) [Compound 74b, 1-(6-(2H-1,2,3-Triazol-2-yl)-5-(trifluoromethyl)pyridin-3-yl)-3-(7-(1-(dimethylsmino)ethyl)-2-methylthiazolo[5,4-b]pyridin-6-yl)urea] | 1 to 50 | 1 to 100 |
| COC(c1c(NC(=O)Nc2cnc(-n3nccn3)c(C(F)(F)F)c2)cnc2sc(C)nc12)C(C)C (single isomer, unassigned) [Compound 78b, 1-(6-(2H-1,2,3-Triazol-2-yl)-5-(trifluoromethyl)pyridin-3-yl)-3-(7-(1-methexyl-methylpropyl)-2-methylthiazolo[5,4-b]pyridin-6-yl)urea] | 1 to 50 | 1 to 100 |
| COC(c1ccccc1)c1c(NC(=O)Nc2cnc(-n3nccn3)c(Cl)c2)cnc2sc(C)nc12 (single isomer, unassigned) [Compound 84b, 1-(5-Chloro-6-(2H-1,2,3-triazol-2-yl)pyridin-3-yl)-3-(7-(methoxy(phenyl)methyl)-2-methylthiazolo[5,4-b]pyridin-6-yl)urea] | 1 to 50 | 1 to 100 |
| COc1nc(-n2nccn2)c(C(F)(F)F)cc1NC(=O)Nc1cnc2sc(C)nc2c1C(C)OC (single isomer, unassigned) [Compound 88b, 1-(2-Methoxy-6-(2H-1,2,3-triazol-2-yl)-5-(trifluoromethyl)pyridin-3-yl)-3-(7-(1-methoxyethyl)-2-methylthiazolo[5,4-b]pyridin-6-yl)urea] | 1 to 50 | 1 to 100 |
| COc1nc(-n2nccn2)c(Cl)cc1NC(=O)Nc1cnc2sc(C)nc2c1C(C)OC (single isomer, unassigned) [Compound 90a, 1-(5-Chloro-2-methoxy-6-(2H-1,2,3-triazol-2-yl)pyridin-3-yl)-3-(7-(1-methoxyethyl)-2-methylthiazolo[5,4-b]pyridin-6-yl)urea] | 1 to 50 | 1 to 100 |
| CCC(OC)c1c(NC(=O)Nc2ccc(-n3nccn3)c(Cl)c2)cnc2sc(C)nc12 (single isomer, unassigned) [Compound 126b, 1-(3-Chloro-4-(2H-1,2,3-triazol-2-yl)phenyl)-3-(7-(1-methoxypropyl)-2-methylthiazolo[5,4-b]pyridin-6-yl)urea] | 1 to 50 | 1 to 100 |
| COC(C)c1c(NC(=O)Nc2cnc(-n3nccn3)c(C(F)(F)F)c2)cnc2sc(C)nc12 (single isomer, unassigned) [Compound 142a, 1-(6-(2H-1,2,3-Triazol-2-yl)-5-(trifluoromethyl)pyridin-3-yl)-3-(7-(1-methoxyethyl)-2-methylthiazolo[5,4-b]pyridin-6-yl)urea] | 1 to 50 | 1 to 100 |
| COC(=O)c1cc(Cl)cc(NC(=O)Nc2cnc3sc(C)nc3c2C(C)OC)c1 (single isomer, unassigned) [Compound 152b, Methyl 3-chloro-5-(3-(7-(1-methoxyethyl)-2-methylthiazolo[5,4-b]pyridin-6-yl)ureido)benzoate] | 1 to 50 | 1 to 100 |
| COc1nc(-n2nccn2)c(C(F)(F)F)cc1NC(=O)Nc1cnc2sc(C)nc2c1C(OC)C1CC1 (single isomer, unassigned) [Compound 155a, 1-(7-(Cyclopropyl(methoxy)methyl)-2-methylthiazolo[5,4-b]pyridin-6-yl)-3-(2-methoxy-6-(2H-1,2,3-triazol-2-yl)-5-(trifluoromethyl)pyridin-3-yl)urea] | 1 to 50 | 1 to 100 |
| CCOC(C)c1c(NC(=O)Nc2cc(Cl)cnc2OC)cnc2sc(C)nc12 (single isomer, unassigned) [Compound 167b, 1-(5-Chloro-2-methoxypyridin-3-yl)-3-(7-(1-ethoxyethyl)-2-methylthiazolo[5,4-b]pyridin-6-yl)urea] | 51 to 100 | 1 to 100 |
| COC(C)c1c(NC(=O)Nc2ccc(-n3ccnn3)c(Cl)c2)cnc2sc(C)nc12 (single isomer, unassigned) [Compound 198b, (S) or (R)-1-(3-Chloro-4-(1H-1,2,3-triazol-1-yl)phenyl)-3-(7-(1-methoxyethyl)-2-methylthiazolo[5,4-b]pyridin-6-yl)urea] | 1 to 50 | 1 to 100 |
| COC(C)c1c(NC(=O)Nc2ccc(-c3cnco3)c(Cl)c2)cnc2sc(C)nc12 (single isomer, unassigned) [Compound 204, (S) or (R)-1-(3-Chloro-4-(oxazol-5-yl)phenyl)-3-(7-(1-methoxyethyl)-2-methylthiazolo[5,4-b]pyridin-6-yl)urea] | 101 to 500 | 101 to 500 |
